# According to patent publication US20230235378A1, “LZHEIMER'S DISEASE-SPECIFIC ALTERATIONS OF PROTEIN KINASE C EPSILON (PKC-EPSILON PROTEIN LEVELS” (WEST VIRGINIA UNIVERSITY BOARD OF GOVERNORS ON BEHALF OF …, priority 2010, published 2023):
# Columns and labels:
# TACE = TACE assay in cell homogenates of neuronal cells; type: cell-based; details: human SH-SY5Y, N2a mouse neuroblastoma cells, primary neurons from rat hippocampus
# Method: TACE Assay. TACE was measured by incubating 5 μl cell homogenate, 3 μl buffer (50 mM Tris-HCl 7.4 plus 25 mM NaCl plus 4% glycerol), and 1 μl of 100 μM TACE substrate IV (Aβz-LAQAVRSSSR-DPa) (Calbiochem) for 20 min at 37° in 1.5-ml polypropylene centrifuge tubes (Jin et al., Anal. Biochem. 2002; 302: 269-75). The reaction was stopped by cooling to 4° C. The samples were diluted to 1 ml and the fluorescence was rapidly measured (ex=320 nm, em=420 nm) in a Spex Fluorolog 2 spectrofluorometer.
# Buxbaum et al., J. Biol. Chem. 1998; 273: 27765-67; Etcheberrigaray et al., Proc. Natl. Acad. Sci. USA. 2006: 103:8215-20. However, many of these earlier studies were carried out in fibroblasts and other non-neuronal cell types, which appear to respond differently to PKC activators than neurons.
# PKCα = molecular target: T1, PKCα (Homo sapiens, UniProt P17252); experiment: Protein kinase C assay with recombinant PKC alpha isoform ([γ32P]ATP, histones); type: biochemical; details: data not shown
# T1 construct: purchased Calbiochem (San Diego, Calif.)
# Method: Protein Kinase C Assay. Recombinant PKC (1 ng of alpha or epsilon isoform) was mixed with the BR-101 (DCP-LA) in the presence of 10 micromolar histones, 5 mM CaCl2, 1.2 μg/μl phosphatidyl-L-serine, 0.18 μg/μl 1,2-dioctanoyl-sn-glycerol (DAG), 10 mM MgCl2, 20 mM HEPES (pH 7.4), 0.8 mM EDTA, 4 mM EGTA, 4% glycerol, 8 μg/ml aprotinin, 8 μg/ml leupeptin, and 2 mM benzamidine. 0.5 micro Ci [γ32P]ATP was added. The incubation mixture was incubated for 15 min at 37 degrees in a total volume of 10 microliters. The reaction was stopped by spotting the reaction mixtures on 1×2 cm strips of cellulose phosphate paper (Whatman P81) and immediately washing twice for 1 hr in 0.5% H3PO4. The cellulose phosphate strips were counted in a scintillation counter. In some experiments, phosphatidylserine, diacylglycerol, and/or calcium were removed.
smiles,measurement,setting,value
"CCCCCC1CC1CC1CC1CCCCCCCC(=O)O (centres unmarked) [BR-101, 8-[2-(2-pentyl-cyclopropylmethyl)-cyclopropyl]-octanoic acid]",change in TACE activity,TACE,only produced small increases
same,effect on PKCα,PKCα,not affected
